Values of other authors in US20030077328A1, “Method and composition for inhibiting post-surgical adhesions” (priority 1995, published 2003).

Test system: post-traumatic adhesion formation
Settings: hamster; 0.1 to 10 mg/kg subcutaneously at 12-hour intervals

Q: With `CC(=O)CCCCn1c(=O)c2c(ncn2C)n(C)c1=O` [pentoxifylline] as the compound, how does the “protection against post-traumatic adhesion formation” value read?
A: The value was “provide protection against post-traumatic adhesion formation”.
